Data set [1] can be described thus: Agonist activity at nAChR alpha3beta4* expressed in human IMR32 cells assessed as calcium flux by FLIPR assay. The format is functional, cell-based. The note with it: for pEC50: IMR-32, read-out: EC50. For orientation: A change in cytosolic calcium serves as a functional read-out for many receptors and channels.
The target in data set [2] is Neuronal acetylcholine receptor; alpha4/beta2 (Rattus norvegicus, UniProt P09483+P12390). As to the kind of experiment: Displacement of [3H]cytisine from nAChR alpha4beta2 in rat brain membrane. The note with it: for pKi: read-out: Ki; for Ki: read-out: pKi (converted). The format is cell membranes.
The nature of data set [3]: Agonist activity at nAChR alpha3beta4* expressed in human IMR32 cells assessed as calcium flux by FLIPR assay relative to nicotine. The note with it: IMR-32. Type of data set: functional.
A short description of data set [4]: Drug uptake in rat brain at 2 umol/kg, ip measured after 0.75 hrs. The format is ADME, organism-based. Particulars: read-out: Drug uptake.
Data set [5] in a line: Ratio drug uptake in brain to plasma of rat at 2 umol/kg, ip measured after 0.75 hrs. Type of data set: ADME, organism-based. Particulars: read-out: BPR.
Data set [6] is described as follows: Drug uptake in rat plasma at 2 umol/kg, ip measured after 0.75 hrs. Type of data set: ADME, organism-based.
Data set [7] in a line: Half life in rat at 2 umol/kg, ip measured after 8 hrs. The format is ADME, organism-based. The note with it: in vivo.
A short description of data set [8]: Bioavailability in rat at 2 umol/kg, ip. Type of data set: ADME, organism-based. Particulars: in vivo.
Data set [9] in a line: Half life in rat at 2 umol/kg, po measured after 8 hrs. Type of data set: ADME, organism-based. Particulars: in vivo.
The nature of data set [10]: Oral bioavailability in rat at 2 umol/kg. Type of data set: ADME, organism-based. Particulars: in vivo.
Data set [11] can be described thus: Half life in rat at 2 umol/kg, iv measured after 8 hrs. Type of data set: ADME, organism-based. Particulars: in vivo.

pEC50, pKi: −log10 of the molar value. A value given as a limit tells only on which side of the number the result lay.

Sequence of Neuronal acetylcholine receptor; alpha4/beta2 (P09483 whole entry): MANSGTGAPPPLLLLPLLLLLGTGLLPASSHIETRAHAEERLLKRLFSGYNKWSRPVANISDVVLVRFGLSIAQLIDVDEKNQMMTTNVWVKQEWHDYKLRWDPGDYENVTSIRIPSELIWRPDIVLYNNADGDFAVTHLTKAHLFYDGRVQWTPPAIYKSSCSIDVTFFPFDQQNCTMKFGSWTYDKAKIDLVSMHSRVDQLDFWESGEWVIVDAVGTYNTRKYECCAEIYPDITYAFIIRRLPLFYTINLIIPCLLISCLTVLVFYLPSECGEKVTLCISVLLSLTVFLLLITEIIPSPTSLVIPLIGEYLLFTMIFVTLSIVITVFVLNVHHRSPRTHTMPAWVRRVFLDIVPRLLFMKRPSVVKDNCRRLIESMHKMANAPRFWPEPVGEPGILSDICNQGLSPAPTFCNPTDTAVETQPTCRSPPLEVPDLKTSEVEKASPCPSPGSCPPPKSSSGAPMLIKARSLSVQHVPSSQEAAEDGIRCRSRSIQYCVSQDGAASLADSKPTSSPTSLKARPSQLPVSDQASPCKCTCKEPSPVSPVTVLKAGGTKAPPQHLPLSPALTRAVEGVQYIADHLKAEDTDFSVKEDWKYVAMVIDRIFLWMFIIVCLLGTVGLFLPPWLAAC
Sequence of Neuronal acetylcholine receptor; alpha4/beta2 (P12390 whole entry): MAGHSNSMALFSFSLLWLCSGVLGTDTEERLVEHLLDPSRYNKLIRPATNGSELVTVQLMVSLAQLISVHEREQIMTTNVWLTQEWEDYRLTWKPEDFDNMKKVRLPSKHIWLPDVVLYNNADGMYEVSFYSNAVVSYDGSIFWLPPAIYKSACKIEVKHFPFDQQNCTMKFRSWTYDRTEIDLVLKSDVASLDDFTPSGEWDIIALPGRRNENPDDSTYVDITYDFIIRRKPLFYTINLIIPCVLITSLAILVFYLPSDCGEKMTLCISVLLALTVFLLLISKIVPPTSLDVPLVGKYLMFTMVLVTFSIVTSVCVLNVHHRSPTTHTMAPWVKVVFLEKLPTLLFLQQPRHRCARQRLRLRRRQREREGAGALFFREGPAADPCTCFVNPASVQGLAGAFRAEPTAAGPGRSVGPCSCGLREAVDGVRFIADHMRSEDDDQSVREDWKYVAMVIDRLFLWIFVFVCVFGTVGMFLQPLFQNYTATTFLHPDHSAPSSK

On to `O=C(NCCc1ccccc1)c1cncc(N2C[C@H]3CNC[C@H]3C2)n1`, for which the pEC50 (in general, the EC50 on a negative log10 scale, so that one unit is a factor of ten) in data set [1] was under 4.00. For the same compound, the pKi (in general, the Ki on a negative log10 scale, so that one unit is a factor of ten) in data set [2] was 7.16. For the same compound, the Emax (as a rule, the maximal effect, on the per cent scale that the assay sets) in [3] was 13%.

As to `O=C(NC1CCc2ccccc21)c1cncc(N2C[C@H]3CNC[C@H]3C2)c1` (stereo not given in full), the pEC50 in data set [1] was under 4.00. The pKi in data set [2] is 7.77. Further, the Emax in data set [3] is 10%.

Consider `Cc1ccccc1CNC(=O)c1cncc(N2C[C@H]3CNC[C@H]3C2)c1`, for which the concentration at 0.75 h in data set [4] was found to be 3.3 ng/mL; in data set [6], 142 ng/mL. Further, in [1], the pEC50 is under 4.00. In addition, the pKi in data set [2] is 8.57. The Kp at 0.75 h in data set [5] stood at 0.02. Also, the Emax in data set [3] was 8%.

For `CC(C)Oc1cccc(NC(=O)c2cncc(N3C[C@H]4CNC[C@H]4C3)n2)c1`, the pEC50 in [1] is under 4.00. Moreover, in data set [2], the pKi is 7.59. The Emax in data set [3] came out at 7%.

As for `O=C(NCc1ccccc1C(F)(F)F)c1cncc(N2C[C@H]3CNC[C@H]3C2)c1`, the results for the concentration at 0.75 h in [4] and in data set [6] were 6.9 ng/mL and 164 ng/mL, respectively. Moreover, the pEC50 in data set [1] was under 4.00. Also, in data set [2], the pKi was 9.05. Moreover, the Kp at 0.75 h in [5] amounted to 0.04. Further, the maximal response (Emax) in [3] came to 4%.

`Cc1cccc(NC(=O)c2cncc(N3C[C@H]4CNC[C@H]4C3)n2)c1`: the pEC50 in data set [1] was under 4.00. Further, the pKi in data set [2] is 8.12. Besides, the Emax in [3] was 10%.

Consider `O=C(Nc1cc(F)cc(F)c1)c1cncc(N2C[C@H]3CNC[C@H]3C2)n1`, for which the pEC50 in data set [1] is under 4.00. In data set [2], the pKi is 7.85. Also, in [3], the Emax is 8%.

With `c1cncc(N2C[C@H]3CNC[C@H]3C2)c1`, in data set [2], the pKi was 9.89.

In the case of `Cc1cc(C)cc(NC(=O)c2cncc(N3C[C@H]4CNC[C@H]4C3)c2)c1`, the pEC50 in [1] is under 4.00. Further, in [2], the pKi was 9.52 and the Ki is 0.339 nM. Also, the Emax in data set [3] was found to be 6%.

Take `C[C@@H](NC(=O)c1cncc(N2C[C@H]3CNC[C@H]3C2)c1)c1ccccc1`: the concentration at 0.75 h in data set [4] turned out to be 20.6 ng/mL; in data set [6] it was 139 ng/mL. Moreover, the pEC50 in [1] was under 4.00. The pKi in data set [2] was 8.66. In [5], the Kp at 0.75 h came out at 0.15. Also, the Emax in data set [3] was found to be 6%.

Turning to `Cc1cccc(NC(=O)c2cncc(N3C[C@H]4CNC[C@H]4C3)c2)c1`, the concentration at 0.75 h in [4] stood at 6.4 ng/mL; in data set [6] it was 52.1 ng/mL. Further, in data set [1], the pEC50 is under 4.00. Further, in data set [2], the pKi was 10.00. In addition, in [5], the Kp at 0.75 h stood at 0.12. The Emax in [3] worked out at 6%.

Regarding `Cc1ccccc1CNC(=O)c1cncc(N2CC[C@H]3CNC[C@H]32)c1`, in [2], the pKi is 6.06.

As for `CC(C)Oc1cccc(NC(=O)c2cncc(N3C[C@H]4CNC[C@H]4C3)c2)c1`, the pEC50 in [1] was under 4.00. In addition, the pKi in [2] was 8.96. Also, the Emax in data set [3] was 10%.

As to `O=C(c1cncc(N2C[C@H]3CNC[C@H]3C2)c1)N1CCc2ccccc2C1`, the pEC50 in data set [1] is under 4.00. The pKi in data set [2] is 9.52. The Emax in data set [3] was determined as 7%.

On to `O=C(NCc1ccc(Cl)c(Cl)c1)c1cncc(N2C[C@H]3CNC[C@H]3C2)n1`, for which, in data set [1], the pEC50 is under 4.00. Moreover, in data set [2], the pKi is 8.60. In data set [3], the Emax was 12%.

With `CC(C)c1cccc(NC(=O)c2cncc(N3C[C@H]4CNC[C@H]4C3)n2)c1`, the pKi in data set [2] is 7.46.

In the case of `CC(NC(=O)c1cncc(N2C[C@H]3CNC[C@H]3C2)n1)c1ccccc1` (stereo not given in full), the pKi in data set [2] was 6.88.

For the compound `O=C(Nc1cccc(I)c1)c1cncc(N2C[C@H]3CNC[C@H]3C2)n1`, the pEC50 in data set [1] was under 4.00. Moreover, in [2], the pKi is 8.48. The Emax in data set [3] came to 7%.

In the case of `c1cncc(N2C[C@H]3CCN[C@H]3C2)c1`, the pKi in data set [2] is 9.47.

Regarding `C[C@H](NC(=O)c1cncc(N2C[C@H]3CNC[C@H]3C2)c1)c1ccccc1`, the pEC50 in [1] is under 4.00. The pKi in data set [2] was 7.41. In addition, in data set [3], the Emax is 5%.

In the case of `Cc1ccccc1CNC(=O)c1cncc(N2C[C@H]3CNC[C@H]3C2)n1`, the values for the half-life in data set [7], in data set [9] and in data set [11] were 2.4 h, 2.1 h and 1.7 h, respectively. Further, the bioavailability (usually dose-corrected exposure relative to a reference, in per cent) in data set [8] came out at 77%; in data set [10], 35%. Besides, the concentration at 0.75 h in [4] is 8 ng/mL; in [6], 178 ng/mL. In [1], the pEC50 was under 4.00. In data set [2], the pKi was 8.77. The Kp at 0.75 h in data set [5] was 0.04. The Emax in data set [3] came out at 17%.

As for `O=C(Nc1cccc(Cl)c1)c1cncc(N2C[C@H]3CNC[C@H]3C2)n1`, the pEC50 in data set [1] was under 4.00. Besides, the pKi in [2] was 9.15. In [3], the Emax is 26%.

In the case of `Cc1cc(C)cc(NC(=O)c2cncc(N3C[C@H]4CNC[C@H]4C3)n2)c1`, the pKi in [2] was 7.29.

On to `O=C(NCc1ccccc1)c1cncc(N2C[C@H]3CNC[C@H]3C2)n1`, for which the values for the concentration at 0.75 h in data set [4] and in [6] were 3 ng/mL and 81.3 ng/mL, respectively. Moreover, the pEC50 in data set [1] was under 4.00. Also, the pKi in data set [2] was 8.41. The Kp at 0.75 h in data set [5] was 0.04. Also, the Emax in data set [3] came to 10%.

Regarding `COc1cc(NC(=O)c2cncc(N3C[C@H]4CNC[C@H]4C3)c2)cc(OC)c1`, the concentration at 0.75 h was 5.5 ng/mL in data set [4] and 74.5 ng/mL in [6]. Moreover, the pEC50 in data set [1] is under 4.00. Moreover, in [2], the pKi was 9.52. Also, the Kp at 0.75 h in data set [5] is 0.07. Also, in data set [3], the Emax was 10%.

For the compound `CN(Cc1ccccc1)C(=O)c1cncc(N2C[C@H]3CNC[C@H]3C2)c1`, the results for the concentration at 0.75 h in [4] and in [6] were 6 ng/mL and 89.8 ng/mL, respectively. In addition, the pEC50 in data set [1] was under 4.00. The pKi in data set [2] is 8.41. In addition, the Kp at 0.75 h in [5] is 0.07. For the same compound, the Emax in data set [3] came out at 14%.

As to `c1ccc(COc2cncc(N3C[C@H]4CNC[C@H]4C3)n2)cc1`, the concentration at 0.75 h in [4] was 76.8 ng/mL; in data set [6], 23.5 ng/mL. The Kp at 0.75 h in [5] amounted to 3.27.

Consider `c1cnc(N2C[C@H]3CNC[C@H]3C2)cn1`, for which the pKi in [2] is 8.11.

Regarding `O=C(NCCc1ccccc1F)c1cncc(N2C[C@H]3CNC[C@H]3C2)c1`, in [1], the negative logarithm of the EC50 (pEC50) is 4.80. Further, the EC50 in data set [1] (IMR-32, read-out: pEC50 (converted)) is 15800 nM. In data set [2], the pKi was 9.10. In data set [3], the Emax stood at 6%.

With `Cc1ccccc1CNC(=O)c1cncc(N2CC[C@@H]3CNC[C@@H]32)n1`, the pKi in [2] is 5.25.

In the case of `CN(Cc1ccccc1)C(=O)c1cncc(N2C[C@H]3CNC[C@H]3C2)n1`, the pKi in data set [2] is 6.76.

For the compound `Cc1ccccc1CNC(=O)c1cncc(N2C[C@@H]3CCN[C@@H]3C2)n1`, in data set [2], the negative-log Ki (pKi) was under 5.00 and the Ki was over 10000 nM.

On to `O=C(Nc1ccc(Cl)cc1)c1cncc(N2C[C@H]3CNC[C@H]3C2)c1`, for which the pEC50 in [1] was under 4.00. Moreover, the pKi in data set [2] was 9.70. Further, in [3], the Emax is 8%.

With `O=C(Nc1cccc(I)c1)c1cncc(N2C[C@H]3CNC[C@H]3C2)c1`, the pEC50 in [1] is under 4.00. In [2], the pKi was 10.70 and the Ki was 0.0245 nM. For the same compound, the Emax in [3] worked out at 6%.

As for `c1cncc(N2C[C@@H]3CCN[C@@H]3C2)c1`, the pKi in data set [2] was 8.54.

Consider `Cc1cccc(NC(=O)c2cncc(N3C[C@@H]4CCN[C@@H]4C3)n2)c1`, for which the pKi in data set [2] was 5.58.

Take `O=C(Nc1cc(F)cc(F)c1)c1cncc(N2C[C@H]3CNC[C@H]3C2)c1`: in [1], the pEC50 is under 4.00. Besides, the pKi in data set [2] is 10.40. In addition, the Emax in [3] was determined as 18%.

Values taken from ChEMBL document CHEMBL1938346, “Structure-activity studies of diazabicyclo[3.3.0]octane-substituted pyrazines and pyridines as potent α4β2 nicotinic acetylcholine receptor ligands” (J Med Chem, 2011).
